target: T1, human TRPA1 (Homo sapiens, UniProt O75762); test: Cell-based functional intracellular calcium ([Ca2+]i) assay, Fluo-4/Fluo-8, FlexStation, challenge with reference TRPA1 agonist (FFA, AITC or 4-HNE); details: not given
T1 construct: expressed in transfected cells
Experimental: A stable HEK293 cell line that expresses human TRPA1 in an inducible manner was employed in this assay. […] The expression of TRPA1 was induced by including 1 μg/ml doxycycline in the culture medium. For the induced cells, ruthenium red (5 μM) was also added to minimize the constitutive TRPA1 channel activity and cells were used 14-18 hrs after induction. To measure [Ca^2+]i changes, cells were seeded in wells of 96-well plates at ˜100,000 cells/well and grown for 14-18 hrs to reach confluency. To prevent cell loss from subsequent washing, the wells were treated with 20 μg/ml polyornithine (MW>30,000, Sigma, St Louis, Mo.) for >15 min and rinsed once with Hank's balanced salt solution without Mg^2+ and Ca^2+. […] In some experiments, Fluo-8-AM was used instead of Fluo-4-AM as the calcium-sensitive fluorescent probe. Probenecid (2 mM) was included in all solutions to prevent the leakage of Fluo-4 or Fluo-8 from the cells. At the end of the incubation, cells were washed three times with ECS and placed in 80 μL of the same solution. Fluorescence changes were measured using a fluid handling integrated fluorescence plate reader, FlexStation (Molecular Devices, Sunnyvale, Calif.). Stock solutions of test compounds were initially solubilized in 100% DMSO and then serially diluted to achieve the desired final concentration. […] Drugs were diluted into ECS at 2× or 3× the desired final concentrations and delivered to the sample plate by an integrated robotic 8-channel pipettor at preprogrammed time points. […] Experiments were performed at 20-25° C. For certain experiments, 0.1% BSA was included with the cells and test compounds.
The kinetic data obtained at each test concentration of drug represents a series of fluorescent intensities as a function of time.
Using a sequential addition protocol, test compounds were initially applied to the cells loaded with Fluo-4 or Fluo-8 and fluorescence changes in each well monitored for 2.5 min. The plate was read again in a kinetic mode after a 15-30 min incubation with the test compounds after obtaining baseline values (about 30 s) and subsequent addition of challenge with a reference TRPA1 agonist. Reference TRPA1 agonists in testing each compound included at least one of flufenamic acid (FFA), allyl isothiocyanate (AITC) and 4-hydroxynonenal (4-HNE).
Antagonist activity can be expressed in terms of IC50 with respect to TRPA1 and agonist activity can be expressed in terms of EC50 with respect to TRPA1.

T1 sequence (O75762 whole entry): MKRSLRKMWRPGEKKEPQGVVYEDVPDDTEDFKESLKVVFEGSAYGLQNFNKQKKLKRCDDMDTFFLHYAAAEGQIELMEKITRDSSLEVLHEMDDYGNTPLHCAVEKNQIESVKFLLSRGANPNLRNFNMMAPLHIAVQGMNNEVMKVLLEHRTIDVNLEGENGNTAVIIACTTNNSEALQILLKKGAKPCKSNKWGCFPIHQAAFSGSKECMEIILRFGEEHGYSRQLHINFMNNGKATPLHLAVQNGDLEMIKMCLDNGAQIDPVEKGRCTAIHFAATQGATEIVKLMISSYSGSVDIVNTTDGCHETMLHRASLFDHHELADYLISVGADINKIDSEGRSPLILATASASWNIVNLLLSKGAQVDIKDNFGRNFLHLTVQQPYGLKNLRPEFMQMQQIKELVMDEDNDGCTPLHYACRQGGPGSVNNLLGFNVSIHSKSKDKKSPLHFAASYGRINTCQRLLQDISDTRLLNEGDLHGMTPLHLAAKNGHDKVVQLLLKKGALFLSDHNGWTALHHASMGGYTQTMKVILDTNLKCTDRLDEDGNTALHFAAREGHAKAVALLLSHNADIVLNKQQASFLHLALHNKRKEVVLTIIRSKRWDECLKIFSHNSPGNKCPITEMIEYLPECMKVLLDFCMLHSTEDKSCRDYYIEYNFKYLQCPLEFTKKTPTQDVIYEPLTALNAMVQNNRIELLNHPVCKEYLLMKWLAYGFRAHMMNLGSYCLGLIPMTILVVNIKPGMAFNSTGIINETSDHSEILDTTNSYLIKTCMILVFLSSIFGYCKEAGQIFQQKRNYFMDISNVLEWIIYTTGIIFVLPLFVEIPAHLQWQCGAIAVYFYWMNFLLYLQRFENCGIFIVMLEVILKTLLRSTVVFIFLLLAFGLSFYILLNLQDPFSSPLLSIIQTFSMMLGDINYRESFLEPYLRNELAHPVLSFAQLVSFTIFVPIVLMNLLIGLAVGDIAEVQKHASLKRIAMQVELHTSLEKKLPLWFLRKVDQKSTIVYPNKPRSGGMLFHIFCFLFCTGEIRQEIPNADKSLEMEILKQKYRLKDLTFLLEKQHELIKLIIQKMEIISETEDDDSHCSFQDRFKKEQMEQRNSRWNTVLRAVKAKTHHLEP

First: O=C(c1cc(-c2ccncc2)n(-c2ccc(C(F)(F)F)cc2)n1)N1CCC2(CC1)OCCO2 [Compound 145]
Second: O=C(c1cc(-c2ccncc2)n(-c2cccc(C(F)(F)F)c2)n1)N1CCC2(CC1)OCCO2 [Compound 148]
The IC50 of the first is lower: 5 to 25 µM for the first, greater than 25 µM for the second.

First: O=C(c1cc(-c2ccncc2)n(-c2ccc(F)c(F)c2)n1)N1CCC2(CC1)OCCO2 [Compound 151]
Second: O=C(c1cc(-c2ccncc2)n(-c2ccc(C(F)(F)F)c(F)c2)n1)N1CCC2(CC1)OCCO2 [Compound 163]
The IC50 of the first is higher: greater than 25 µM for the first, 5 to 25 µM for the second.

`O=C(c1cc(-c2ccncc2)n(-c2ccc(F)cc2F)n1)N1CCC2(CC1)OCCO2` [Compound 154] and `O=C(c1cc(-c2ccncc2)n(-c2ccc3c(c2)OCO3)n1)N1CCC2(CC1)OCCO2` [Compound 157] cannot be ordered by IC50: greater than 25 µM for the first, greater than 25 µM for the second.

`O=C(c1cc(-c2ccncc2)n(-c2cc(C(F)(F)F)cc(C(F)(F)F)c2)n1)N1CCC2(CC1)OCCO2` [Compound 160] and `O=C(c1cc(-c2ccncc2)n(-c2ccc(C(F)(F)F)nc2)n1)N1CCC2(CC1)OCCO2` [Compound 166] cannot be ordered by IC50: greater than 25 µM for the first, greater than 25 µM for the second.

Compared with `O=C(c1cc(-c2ccncc2)n(-c2cnccn2)n1)N1CCC2(CC1)OCCO2` [Compound 169], `O=C(c1cc(-c2cccnc2)n(-c2ccc(C(F)(F)F)c(F)c2)n1)N1CCN2C(=O)OC3(CC3)[C@@H]2C1` [Compound 192] is lower in IC50: greater than 25 µM for the first, 0.001 to 5 µM for the second. The second is the more potent here.

Compared with `O=C(c1cc(-c2cccnc2)n(-c2ccc(C(F)(F)F)c(F)c2)n1)N1CCC2(CC1)C(=O)NC(=O)N2c1ccc(F)cc1` [Compound 185], `O=C(c1cc(-c2cccnc2)n(-c2ccc(C(F)(F)F)c(F)c2)n1)N1C2CCC1CC1(C2)C(=O)NCN1c1ccc(F)cc1` (stereo not shown) [Compound 193] is lower in IC50: 5 to 25 µM for the first, 0.001 to 5 µM for the second. The second is the more potent here.

same assay, conditions: HEK293 cells expressing human TRPA1; IC50 class after addition of reference TRPA1 agonist (FFA, AITC or 4-HNE); read-out: human TRPA1-HEK Activity

Compared with `O=C(c1cc(-c2ccncc2)n(-c2ccc(C(F)(F)F)cc2)n1)N1CCC(n2c(=O)[nH]c3ccccc32)CC1` [Compound 144], `O=C(c1cc(-c2ccncc2)n(-c2cccc(C(F)(F)F)c2)n1)N1CCC(n2c(=O)[nH]c3ccccc32)CC1` [Compound 147] is higher in IC50: 5 to 25 µM for the first, greater than 25 µM for the second.

`O=C(c1cc(-c2ccncc2)n(-c2cccc(C(F)(F)F)c2)n1)N1CCC2(CC1)C(=O)NCN2c1ccccc1` [Compound 146] and `O=C(c1cc(-c2ccncc2)n(-c2ccc(C(F)(F)F)c(F)c2)n1)N1CCC2(CC1)C(=O)NCN2c1ccccc1` [Compound 161] fall in the same range of IC50: 5 to 25 µM for the first, 5 to 25 µM for the second.

First: O=C(c1cc(-c2ccncc2)n(-c2ccc(F)c(F)c2)n1)N1CCC2(CC1)C(=O)NCN2c1ccccc1 [Compound 149]
Second: O=C(c1cc(-c2ccncc2)n(-c2ccc(F)cc2F)n1)N1CCC2(CC1)C(=O)NCN2c1ccccc1 [Compound 152]
The IC50 of the first is lower: 5 to 25 µM for the first, greater than 25 µM for the second.

`O=C(c1cc(-c2ccncc2)n(-c2ccc(F)c(F)c2)n1)N1CCC(n2c(=O)[nH]c3ccccc32)CC1` [Compound 150] and `O=C(c1cc(-c2ccncc2)n(-c2ccc(C(F)(F)F)c(F)c2)n1)N1CCC(n2c(=O)[nH]c3ccccc32)CC1` [Compound 162] fall in the same range of IC50: 5 to 25 µM for the first, 5 to 25 µM for the second.

`O=C(c1cc(-c2ccncc2)n(-c2ccc(F)cc2F)n1)N1CCC(n2c(=O)[nH]c3ccccc32)CC1` [Compound 153] and `O=C(c1cc(-c2ccncc2)n(-c2ccc3c(c2)OCO3)n1)N1CCC(n2c(=O)[nH]c3ccccc32)CC1` [Compound 156] cannot be ordered by IC50: greater than 25 µM for the first, greater than 25 µM for the second.

Compared with `O=C(c1cc(-c2ccncc2)n(-c2ccc3c(c2)OCO3)n1)N1CCC2(CC1)C(=O)NCN2c1ccccc1` [Compound 155], `O=C(c1cc(-c2ccncc2)n(-c2ccc(C(F)(F)F)nc2)n1)N1CCC2(CC1)C(=O)NCN2c1ccccc1` [Compound 164] is lower in IC50: greater than 25 µM for the first, 5 to 25 µM for the second.

`O=C(c1cc(-c2ccncc2)n(-c2cc(C(F)(F)F)cc(C(F)(F)F)c2)n1)N1CCC2(CC1)C(=O)NCN2c1ccccc1` [Compound 158] and `O=C(c1cc(-c2ccncc2)n(-c2cc(C(F)(F)F)cc(C(F)(F)F)c2)n1)N1CCC(n2c(=O)[nH]c3ccccc32)CC1` [Compound 159] fall in the same range of IC50: 5 to 25 µM for the first, 5 to 25 µM for the second.

First: O=C(c1cc(-c2ccncc2)n(-c2ccc(C(F)(F)F)nc2)n1)N1CCC(n2c(=O)[nH]c3ccccc32)CC1 [Compound 165]
Second: O=C(c1cc(-c2ccncc2)n(-c2cnccn2)n1)N1CCC(n2c(=O)[nH]c3ccccc32)CC1 [Compound 168]
The IC50 of the first is higher: greater than 25 µM for the first, 5 to 25 µM for the second. The second is the more potent here.

First: O=C(c1cc(-c2ccncc2)n(-c2cnccn2)n1)N1CCC2(CC1)C(=O)NCN2c1ccccc1 [Compound 167]
Second: CN1C(=O)NC2(CCN(C(=O)c3cc(-c4ccncc4)n(-c4ccccc4)n3)CC2)C1=O [Compound 174]
The IC50 of the first is lower: 5 to 25 µM for the first, greater than 25 µM for the second.

`O=C(c1cc(-c2ccncc2)n(-c2ccccc2)n1)N1CCC2(CC1)OCc1ccccc12` [Compound 170] and `O=C1OC2(CCN(C(=O)c3cc(-c4ccncc4)n(-c4ccccc4)n3)CC2)c2ccccc21` [Compound 171] cannot be ordered by IC50: greater than 25 µM for the first, greater than 25 µM for the second.

`Cn1c(=O)n(C2CCN(C(=O)c3cc(-c4ccncc4)n(-c4ccccc4)n3)CC2)c2ccccc21` [Compound 172] and `O=C(c1cc(-c2ccncc2)n(-c2ccccc2)n1)N1CCC(N2C(=O)OC[C@H]2c2ccccc2)CC1` [Compound 173] cannot be ordered by IC50: greater than 25 µM for the first, greater than 25 µM for the second.

`O=C(c1cc(-c2ccncc2)n(-c2cc(F)c(F)c(F)c2)n1)N1CCC(n2c(=O)[nH]c3cc(C(F)(F)F)ccc32)CC1` [Compound 176] and `O=C(c1cc(-c2ccncc2)n(-c2ccc(C(F)(F)F)cc2)n1)N1CCC(n2c(=O)[nH]c3cc(C(F)(F)F)ccc32)CC1` [Compound 178] fall in the same range of IC50: 5 to 25 µM for the first, 5 to 25 µM for the second.

`O=C(c1cc(-c2ccncc2)n(-c2ccc(C(F)(F)F)cc2)n1)N1CCC(n2c(=O)[nH]c3ccc(F)c(F)c32)CC1` [Compound 177] and `O=C(c1cc(-c2cccnc2)n(-c2ccc(C(F)(F)F)c(F)c2)n1)N1CCC(n2c(=S)[nH]c3ccc(F)c(F)c32)CC1` [Compound 182] fall in the same range of IC50: 0.001 to 5 µM for the first, 0.001 to 5 µM for the second.

First: O=C(c1cc(-c2ccncc2)n(-c2ccc(C(F)(F)F)c(F)c2)n1)N1CCC2(CC1)C(=O)NCN2c1ccc(OC(F)(F)F)cc1 [Compound 179]
Second: O=C(c1cc(-c2cccnc2)n(-c2ccc(C(F)(F)F)c(F)c2)n1)N1CCC2(CC1)C(=O)NCN2c1ccc(OC(F)F)cc1 [Compound 188]
The IC50 of the first is higher: greater than 25 µM for the first, 0.001 to 5 µM for the second. The second is the more potent here.

`O=C(c1cc(-c2cccnc2)n(-c2ccc(C(F)(F)F)c(F)c2)n1)N1CCC2(CC1)C(=O)NCN2c1ccc(F)c(F)c1` [Compound 181] and `O=C(c1cc(-c2cccnc2)n(-c2ccc(C(F)(F)F)c(F)c2)n1)N1CCC2(CC1)C(=O)NCN2c1ccc(F)c(Cl)c1` [Compound 189] fall in the same range of IC50: 0.001 to 5 µM for the first, 0.001 to 5 µM for the second.

`O=C(c1cc(-c2cccnc2)n(-c2ccc(C(F)(F)F)c(F)c2)n1)N1CCC2(CC1)C(=O)NCN2c1ccc(I)cc1` [Compound 183] and `O=C(c1cc(-c2cccnc2)n(-c2ccc(C(F)(F)F)c(F)c2)n1)N1CCC2(CC1)C(=O)NCN2c1ccc(Br)cc1` [Compound 184] cannot be ordered by IC50: greater than 25 µM for the first, greater than 25 µM for the second.

`O=C(c1cc(-c2cccnc2)n(-c2ccc(C(F)(F)F)c(F)c2)n1)N1CCC2(CC1)C(=O)NCN2c1cc(F)c(F)c(F)c1` [Compound 186] and `Cc1cc(N2CNC(=O)C23CCN(C(=O)c2cc(-c4cccnc4)n(-c4ccc(C(F)(F)F)c(F)c4)n2)CC3)cc(C)c1F` [Compound 195] fall in the same range of IC50: 0.001 to 5 µM for the first, 0.001 to 5 µM for the second.

First: O=C(c1cc(-c2cccnc2)n(-c2ccc(C(F)(F)F)c(F)c2)n1)N1CCC2(CC1)C(=O)NCN2c1ccc(F)c(C(F)(F)F)c1 [Compound 187]
Second: COc1cc(F)ccc1N1CNC(=O)C12CCN(C(=O)c1cc(-c3cccnc3)n(-c3ccc(C(F)(F)F)c(F)c3)n1)CC2 [Compound 197]
The IC50 of the first is lower: 0.001 to 5 µM for the first, 5 to 25 µM for the second.

`N#Cc1ccc2[nH]c(=O)n(C3CCN(C(=O)c4cc(-c5cccnc5)n(-c5ccc(C(F)(F)F)c(F)c5)n4)CC3)c2c1` [Compound 190] and `O=C(c1cc(-c2cccnc2)n(-c2ccc(C(F)(F)F)c(F)c2)n1)N1CCC(n2c(=O)[nH]c3ccc(F)c(C(F)(F)F)c32)CC1` [Compound 196] fall in the same range of IC50: 0.001 to 5 µM for the first, 0.001 to 5 µM for the second.

Compared with `O=C(c1cc(-c2cccnc2)n(-c2ccc(C(F)(F)F)c(F)c2)n1)N1CCN2C(=O)OC[C@@H]2C1` [Compound 191], `CC1CC(n2c(=O)[nH]c3ccc(F)c(F)c32)CC(C)N1C(=O)c1cc(-c2cccnc2)n(-c2ccc(C(F)(F)F)c(F)c2)n1` (stereo not shown) [Compound 194] is higher in IC50: 0.001 to 5 µM for the first, 5 to 25 µM for the second. The first is the more potent here.

`O=C(c1cc(-c2cccnc2)n(-c2cc(F)c(F)c(F)c2)n1)N1CCC2(CC1)C(=O)NCN2c1ccc(I)cc1` [Compound 200] and `O=C(c1cc(-c2cccnc2)n(-c2cc(F)c(F)c(F)c2)n1)N1CCC2(CC1)C(=O)NCN2c1ccc(Br)cc1` [Compound 201] fall in the same range of IC50: 0.001 to 5 µM for the first, 0.001 to 5 µM for the second.

`Cc1c(F)ccc2[nH]c(=O)n(C3CCN(C(=O)c4cc(-c5cccnc5)n(-c5cc(F)c(F)c(F)c5)n4)CC3)c12` [Compound 202] gave an IC50 of 0.001 to 5 µM.

— patent US9951046B2, “TRPA1 modulators” (Algomedix, Inc., priority 2014, dated 2018)
